Tests used:
erythema nodosum = experiment: Example 1: patient with erythema nodosum treated with vegetation water composition tablets; format: in vivo, human; conditions: 5 mg predonine for nearly 2.3 years
Experimental: In studies conducted in support of the invention, compositions comprised of the vegetation water composition were prepared and administered to test subjects, as set forth in Examples 1-6. Briefly, the pitted pulp of olives was masticated and pressed to produce a liquid-phase mixture and solid by-products. The solid by-products were separated and removed from the liquid-phase mixture by filtration and centrifugation. The liquid-phase mixture was allowed to rest to allow the oil and aqueous fractions to segregate. The aqueous phase was decanted and acidified with citric acid to adjust the pH between 2 and 4. The acidified aqueous fraction was concentrated by distillation under vacuum and dried by spray drying or oven drying under vacuum to obtain a powder, which was used to prepare the tablets as used in Examples 1-6. Each tablet contained 90 mg of olive pulp solids, 5.4 mg of total polyphenols, and ˜2.5 mg of hydroxytyrosol.
In another embodiment, the compositions of the invention are suitable for treating erythema nodosum. Erythema nodosum is an inflammatory condition characterized by tender, red bumps, and is usually found on the shins, but may also occur on other areas of the body such as the buttocks, calves, ankles, thighs, and upper extremities. Quite often, erythema nodosum is not a separate disease, but, rather, a sign of some other disease, or of sensitivity to a drug. […]

[1] = test system: low density lipoprotein (LDL) oxidation; conditions: Visioli and Galli, 1998; cited from earlier work
platelet aggregation = conditions: Petroni et al., 1995; cited from earlier work
5-lipoxygenase = conditions: de la Puerta et al., 1999; Kohyama et al., 1997; cited from earlier work
12-lipoxygenase = conditions: de la Puerta et al., 1999; Kohyama et al., 1997; cited from earlier work
[2] = test system: peroxynitrite dependent DNA base modification and tyrosine nitration; conditions: Deiana et al., 1999; cited from earlier work
[3] = test system: various human cellular systems; conditions: Manna et al., 2000; cited from earlier work
[4] = humans; Visioli et al., 2000; cited from earlier work

Structure (SMILES)	erythema nodosum lesions, prior treatment (erythema nodosum)	LDL oxidation [1]	platelet aggregation (platelet aggregation)	inhibition of 5-lipoxygenase (5-lipoxygenase)	inhibition of 12-lipoxygenase (12-lipoxygenase)	peroxynitrite dependent DNA base modification and tyrosine nitration [2]	cytotoxicity induced by reactive oxygen species [3]	absorption following ingestion [4]
C[C@]12C=CC(=O)C=C1CC[C@@H]1[C@@H]2[C@@H](O)C[C@@]2(C)[C@H]1CC[C@]2(O)C(=O)CO [predonine]	little resolution							
OCCc1ccc(O)c(O)c1 [hydroxytyrosol, 3,4-dihydroxyphenethyl alcohol]		prevents	prevents	inhibits	inhibits	inhibitory effect	counteracts	dose-dependently absorbed
